ChEMBL document CHEMBL1201862, “PubChem BioAssay data set” (2004)
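48-hour exposure; five concentrations; linearly interpolated endpoints. GI50 marks 50% less growth.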 Active and inactive are the calls of the source. No stated cut-off is given here; in the data, active = GI50 up to about 1.1 µM and inactive = higher.

Columns and labels:
Assay in all cases: growth of human tumour cells (NCI), 48 h
PC-3 = tested on: PC-3
SF-539 = tested on: SF-539
NCI-H460 = tested on: NCI-H460
MDA-MB-435 = tested on: MDA-MB-435
CAKI-1 = tested on: CAKI-1
KM12 = tested on: KM12
HCC 2998 = tested on: HCC 2998
SK-MEL-5 = tested on: SK-MEL-5
OVCAR-4 = tested on: OVCAR-4
NCI-H23 = tested on: NCI-H23
EKVX = tested on: EKVX
UACC-257 = tested on: UACC-257
A498 = tested on: A498
UACC-62 = tested on: UACC-62
OVCAR-8 = tested on: OVCAR-8
CCRF-CEM = tested on: CCRF-CEM
SK-MEL-28 = tested on: SK-MEL-28
HCT-15 = tested on: HCT-15
MCF7 = tested on: MCF7
NCI-H226 = tested on: NCI-H226
K562 = tested on: K562
SW-620 = tested on: SW-620
OVCAR-3 = tested on: OVCAR-3
786-0 = tested on: 786-0
UO-31 = tested on: UO-31
NCI-H522 = tested on: NCI-H522
SNB-75 = tested on: SNB-75
HOP-62 = tested on: HOP-62
TK-10 = tested on: TK-10
SK-OV-3 = tested on: SK-OV-3
SNB-19 = tested on: SNB-19
HCT-116 = tested on: HCT-116
U-251 = tested on: U-251
ACHN = tested on: ACHN
MOLT-4 = tested on: MOLT-4
M14 = tested on: M14
Hs-578T = tested on: Hs-578T
SF-295 = tested on: SF-295
SK-MEL-2 = tested on: SK-MEL-2
MDA-N = tested on: MDA-N
LOX IMVI = tested on: LOX IMVI
BT-549 = tested on: BT-549
HOP-92 = tested on: HOP-92
MDA-MB-231 = tested on: MDA-MB-231
NCI/ADR-RES = tested on: NCI/ADR-RES
HT-29 = tested on: HT-29
SN12C = tested on: SN12C
DU-145 = tested on: DU-145
T47D = tested on: T47D
HL-60 = tested on: HL-60
COLO 205 = tested on: COLO 205
RXF 393 = tested on: RXF 393
SF-268 = tested on: SF-268
OVCAR-5 = tested on: OVCAR-5
RPMI-8226 = tested on: RPMI-8226
Malme-3M = tested on: Malme-3M
IGROV-1 = tested on: IGROV-1
A549 = tested on: A549

C[C@H](CCC1=NCCN1)[C@H]1CC[C@H]2[C@@H]3CC[C@@H]4C[C@H](O)CC[C@]4(C)[C@H]3C[C@H](O)[C@]12C
GI50 (PC-3): 4.57 µM (inactive) | GI50 (SF-539): 13.2 µM (inactive) | GI50 (NCI-H460): 13.9 µM (inactive) | GI50 (MDA-MB-435): 14.5 µM (inactive) | GI50 (CAKI-1): 20.4 µM (inactive) | GI50 (KM12): 11.8 µM (inactive) | GI50 (HCC 2998): 13.5 µM (inactive) | GI50 (SK-MEL-5): 11.8 µM (inactive) | GI50 (OVCAR-4): 15.9 µM (inactive) | GI50 (NCI-H23): 14.1 µM (inactive) | GI50 (EKVX): 18.5 µM (inactive) | GI50 (UACC-257): 15.4 µM (inactive) | GI50 (A498): 20.8 µM (inactive) | GI50 (UACC-62): 13.5 µM (inactive) | GI50 (OVCAR-8): 15.5 µM (inactive) | GI50 (CCRF-CEM): 10.7 µM (inactive) | GI50 (SK-MEL-28): 18.6 µM (inactive) | GI50 (HCT-15): 53.1 µM | GI50 (MCF7): 12.7 µM (inactive) | GI50 (NCI-H226): 14.3 µM (inactive) | GI50 (K562): 5.38 µM (inactive) | GI50 (SW-620): 19.9 µM (inactive) | GI50 (OVCAR-3): 12.1 µM (inactive) | GI50 (786-0): 16.3 µM (inactive) | GI50 (UO-31): 18.6 µM (inactive) | GI50 (NCI-H522): 5.75 µM (inactive) | GI50 (SNB-75): 2.37 µM (inactive) | GI50 (HOP-62): 15.5 µM (inactive) | GI50 (TK-10): 14 µM (inactive) | GI50 (SK-OV-3): 18 µM (inactive) | GI50 (SNB-19): 8.71 µM (inactive) | GI50 (HCT-116): 20.5 µM (inactive) | GI50 (U-251): 8.11 µM (inactive) | GI50 (ACHN): 16.9 µM (inactive) | GI50 (MOLT-4): 3.13 µM (inactive) | GI50 (M14): 17.4 µM (inactive) | GI50 (Hs-578T): 11.4 µM (inactive) | GI50 (SF-295): 15.6 µM (inactive) | GI50 (SK-MEL-2): 13.8 µM (inactive) | GI50 (MDA-N): 14.6 µM (inactive) | GI50 (LOX IMVI): 11.2 µM (inactive) | GI50 (BT-549): 18.2 µM (inactive) | GI50 (HOP-92): 12.2 µM (inactive) | GI50 (MDA-MB-231): 14.9 µM (inactive) | GI50 (NCI/ADR-RES): > 100 µM (inactive) | GI50 (HT-29): 10.5 µM (inactive) | GI50 (SN12C): 16.9 µM (inactive) | GI50 (DU-145): 15.6 µM (inactive) | GI50 (T47D): 13.6 µM (inactive) | GI50 (HL-60): 10.8 µM (inactive) | GI50 (COLO 205): 10.2 µM (inactive) | GI50 (RXF 393): 18 µM (inactive) | GI50 (SF-268): 7.36 µM (inactive) | GI50 (OVCAR-5): 14.5 µM (inactive) | GI50 (RPMI-8226): 11.3 µM (inactive) | GI50 (Malme-3M): 13.7 µM (inactive) | GI50 (IGROV-1): 7.38 µM (inactive)

C=CCC1=CC2(OC)C(=O)C(OC)(OC)C1C1C(OC)(OC)C(=O)C(OC)=CC12CC=C (stereo not given)
GI50 (PC-3): > 100 µM (inactive) | GI50 (A549): > 100 µM (inactive) | GI50 (SF-539): > 100 µM (inactive) | GI50 (NCI-H460): > 100 µM (inactive) | GI50 (MDA-MB-435): > 100 µM (inactive) | GI50 (CAKI-1): > 100 µM (inactive) | GI50 (KM12): > 100 µM (inactive) | GI50 (HCC 2998): > 100 µM (inactive) | GI50 (SK-MEL-5): > 100 µM (inactive) | GI50 (OVCAR-4): > 100 µM (inactive) | GI50 (NCI-H23): > 100 µM (inactive) | GI50 (EKVX): > 100 µM (inactive) | GI50 (UACC-257): > 100 µM (inactive) | GI50 (A498): > 100 µM (inactive) | GI50 (UACC-62): > 100 µM (inactive) | GI50 (OVCAR-8): > 100 µM (inactive) | GI50 (CCRF-CEM): > 100 µM (inactive) | GI50 (SK-MEL-28): > 100 µM (inactive) | GI50 (HCT-15): > 100 µM | GI50 (MCF7): > 100 µM (inactive) | GI50 (K562): > 100 µM (inactive) | GI50 (SW-620): > 100 µM (inactive) | GI50 (OVCAR-3): > 100 µM (inactive) | GI50 (786-0): > 100 µM (inactive) | GI50 (UO-31): > 100 µM (inactive) | GI50 (NCI-H522): > 100 µM (inactive) | GI50 (SNB-75): > 100 µM (inactive) | GI50 (HOP-62): > 100 µM (inactive) | GI50 (TK-10): > 100 µM (inactive) | GI50 (SK-OV-3): 67.8 µM (inactive) | GI50 (SNB-19): > 100 µM (inactive) | GI50 (HCT-116): > 100 µM (inactive) | GI50 (U-251): > 100 µM (inactive) | GI50 (ACHN): > 100 µM (inactive) | GI50 (MOLT-4): > 100 µM (inactive) | GI50 (M14): > 100 µM (inactive) | GI50 (Hs-578T): > 100 µM (inactive) | GI50 (SF-295): > 100 µM (inactive) | GI50 (SK-MEL-2): > 100 µM (inactive) | GI50 (MDA-N): > 100 µM (inactive) | GI50 (LOX IMVI): > 100 µM (inactive) | GI50 (BT-549): 49.9 µM (inactive) | GI50 (HOP-92): > 100 µM (inactive) | GI50 (MDA-MB-231): > 100 µM (inactive) | GI50 (NCI/ADR-RES): > 100 µM (inactive) | GI50 (HT-29): > 100 µM (inactive) | GI50 (SN12C): > 100 µM (inactive) | GI50 (DU-145): > 100 µM (inactive) | GI50 (T47D): > 100 µM (inactive) | GI50 (HL-60): > 100 µM (inactive) | GI50 (COLO 205): > 100 µM (inactive) | GI50 (RXF 393): > 100 µM (inactive) | GI50 (SF-268): > 100 µM (inactive) | GI50 (OVCAR-5): > 100 µM (inactive) | GI50 (RPMI-8226): > 100 µM (inactive) | GI50 (Malme-3M): > 100 µM (inactive) | GI50 (IGROV-1): > 100 µM (inactive)

CC(=O)N[C@H]1CCCC[C@@H]1OC(C)=O
GI50 (PC-3): > 100 µM (inactive) | GI50 (NCI-H460): > 100 µM (inactive) | GI50 (MDA-MB-435): > 100 µM (inactive) | GI50 (CAKI-1): > 100 µM (inactive) | GI50 (KM12): > 100 µM (inactive) | GI50 (HCC 2998): > 100 µM (inactive) | GI50 (SK-MEL-5): > 100 µM (inactive) | GI50 (OVCAR-4): > 100 µM (inactive) | GI50 (NCI-H23): > 100 µM (inactive) | GI50 (EKVX): > 100 µM (inactive) | GI50 (UACC-257): > 100 µM (inactive) | GI50 (A498): > 100 µM (inactive) | GI50 (UACC-62): > 100 µM (inactive) | GI50 (OVCAR-8): > 100 µM (inactive) | GI50 (SK-MEL-28): > 100 µM (inactive) | GI50 (HCT-15): > 100 µM | GI50 (MCF7): > 100 µM (inactive) | GI50 (NCI-H226): > 100 µM (inactive) | GI50 (K562): > 100 µM (inactive) | GI50 (SW-620): > 100 µM (inactive) | GI50 (OVCAR-3): > 100 µM (inactive) | GI50 (786-0): > 100 µM (inactive) | GI50 (NCI-H522): > 100 µM (inactive) | GI50 (SNB-75): > 100 µM (inactive) | GI50 (HOP-62): > 100 µM (inactive) | GI50 (TK-10): > 100 µM (inactive) | GI50 (SK-OV-3): > 100 µM (inactive) | GI50 (HCT-116): > 100 µM (inactive) | GI50 (U-251): > 100 µM (inactive) | GI50 (ACHN): > 100 µM (inactive) | GI50 (MOLT-4): > 100 µM (inactive) | GI50 (Hs-578T): > 100 µM (inactive) | GI50 (SF-295): > 100 µM (inactive) | GI50 (SK-MEL-2): > 100 µM (inactive) | GI50 (MDA-N): > 100 µM (inactive) | GI50 (LOX IMVI): > 100 µM (inactive) | GI50 (BT-549): > 100 µM (inactive) | GI50 (HOP-92): > 100 µM (inactive) | GI50 (MDA-MB-231): > 100 µM (inactive) | GI50 (NCI/ADR-RES): > 100 µM (inactive) | GI50 (HT-29): > 100 µM (inactive) | GI50 (SN12C): > 100 µM (inactive) | GI50 (DU-145): > 100 µM (inactive) | GI50 (T47D): > 100 µM (inactive) | GI50 (HL-60): > 100 µM (inactive) | GI50 (COLO 205): > 100 µM (inactive) | GI50 (RXF 393): > 100 µM (inactive) | GI50 (OVCAR-5): > 100 µM (inactive) | GI50 (RPMI-8226): > 100 µM (inactive) | GI50 (Malme-3M): > 100 µM (inactive) | GI50 (IGROV-1): > 100 µM (inactive)
